Experimental data as given in US8853156B2, “Treatment for diabetes in patients inappropriate for metformin therapy” (Boehringer Ingelheim International GmbH, priority 2008, dated 2014).

Experiments:
[1] = Pharmacokinetics of multiple oral doses once daily for 12 days in patients with type 2 diabetes
[2] = male, human, in vivo, po

main excretion organ ([1]; therapeutic oral dose levels): mainly excreted via the liver
excreted unchanged in urine and feces [2]: 90 % of excreted radioactivity
parent compound share of sample radioactivity in plasma [2]: 74 % of sample radioactivity
Structure (SMILES): CC#CCn1c(N2CCC[C@@H](N)C2)nc2c1c(=O)n(Cc1nc(C)c3ccccc3n1)c(=O)n2C [BI 1356]
excretion route and form ([1]; human, in vivo): primarily excreted unchanged via the bile
